{"source": "paper PMC6270209", "about": "“Synthesis, Antimycobacterial Activity and In Vitro Cytotoxicity of 5-Chloro-N-phenylpyrazine-2-carboxamides” (Molecules, 2013)", "key": {"HepG2 cells [1]": {"tested_on": "HepG2 cells"}, "[2]": {"tested_on": "M. tuberculosis H37Rv CNCTC My 331/88", "assay": "In vitro antimycobacterial activity, microdilution panel method (MIC)", "assay_type": "cell-based, Mycobacterium tuberculosis"}, "[3]": {"tested_on": "M. avium ssp. avium Chester CNCTC My 80/72", "assay": "In vitro antimycobacterial activity, microdilution panel method (MIC)", "assay_type": "cell-based, Mycobacterium avium", "conditions": "for MIC: Mycobacterium avium"}, "HepG2 cells [4]": {"tested_on": "HepG2 cells", "assay": "cells", "conditions": "Homo sapiens, HepG2, read-out: HepG2 IC50"}, "M. avium CNCTC My 152/73": {"tested_on": "M. avium CNCTC My 152/73", "assay": "In vitro antimycobacterial activity, microdilution panel method (MIC)", "assay_type": "cell-based, Mycobacterium avium", "conditions": "for MIC: Mycobacterium avium"}, "in vitro": {"assay": "in vitro", "conditions": "human"}, "[5]": {"tested_on": "Chinese hamster ovary (CHO-K1) cell line", "assay": "cells", "conditions": "Cricetulus griseus, CHO-K1, 24 h, read-out: CHO-K1 IC50"}, "[6]": {"tested_on": "M. kansasii Hauduroy CNCTC My 235/80", "assay": "In vitro antimycobacterial activity, microdilution panel method (MIC)", "assay_type": "cell-based, Mycobacterium kansasii", "conditions": "for MIC: Mycobacterium kansasii"}, "[7]": {"tested_on": "renal cell adenocarcinoma (ACHN) cell line", "assay": "cells", "conditions": "Homo sapiens, 24 h, read-out: ACHN IC50"}, "HepG2 cells [8]": {"tested_on": "HepG2 cells", "conditions": "comparable HepG2 cytotoxicity assay; cited from earlier work"}, "[9]": {"conditions": "RP-HPLC, C18, MeOH 70% / H2O 30%, 30 °C"}, "[10]": {"tested_on": "renal cell adenocarcinoma (ACHN) cell line"}, "[11]": {"tested_on": "Chinese hamster ovary (CHO-K1) cell line"}, "[12]": {"conditions": "SI calculated for M. tbc as IC50 (HepG2)/MIC (in μM) using the lower MIC values (Table 1)"}, "[13]": {"conditions": "Mycobacterium tuberculosis, H37RV, M. tuberculosis H37Rv, retest with extended dilution scale up to 0.39 µg/mL, read-out: Antimycobacterial activity MIC, M. tbc (confirmation retest, value in parentheses)"}, "[14]": {"conditions": "Mycobacterium tuberculosis, H37RV, MIC converted to molar concentrations, read-out: M. tbc H37Rv MIC"}, "[15]": {"conditions": "Mycobacterium tuberculosis, H37RV, pH 5.6, M. tuberculosis H37Rv, primary test, dilution scale 100–[…], Šula's medium pH 5.6, read-out: Antimycobacterial activity MIC, M. tbc"}, "[16]": {"conditions": "M. kansasii Hauduroy CNCTC My 235/80"}, "[17]": {"conditions": "Mycobacterium tuberculosis, H37RV, read-out: M. tbc H37Rv MIC (µM), MIC converted to molar concentrations"}}, "note": "Where two headings read alike, the source gives them in different places."}
{"smiles": "O=C(Nc1cc(Cl)ccc1O)c1cnc(Cl)cn1", "note": "[Compound 21, 5-Chloro-N-(5-chloro-2-hydroxyphenyl)pyrazine-2-carboxamide]", "values": [{"measurement": "Cytotoxicity SI", "setting": "HepG2 cells [1]; [12]", "value": 7.39}, {"measurement": "MIC", "setting": "[2]; [13]", "value": 6.25, "unit": "µg/mL"}, {"measurement": "MIC", "setting": "[2]; [14]", "value": 5.5, "unit": "µM"}, {"measurement": "MIC", "setting": "[2]; [15]", "value": 1.56, "unit": "µg/mL"}, {"measurement": "Antimycobacterial activity MIC, M. avium", "setting": "[3]", "value": 12.5, "unit": "µg/mL"}, {"measurement": "MIC", "setting": "[3]", "value": 12.5, "unit": "µg/mL"}, {"measurement": "IC50", "setting": "HepG2 cells [4]", "value": 41, "unit": "µM"}, {"measurement": "Antimycobacterial activity MIC, M. avium", "setting": "M. avium CNCTC My 152/73", "value": 12.5, "unit": "µg/mL"}, {"measurement": "MIC", "setting": "M. avium CNCTC My 152/73", "value": 12.5, "unit": "µg/mL"}, {"measurement": "IC50", "setting": "in vitro", "value": 40.6, "unit": "µM"}, {"measurement": "IC50", "setting": "[5]", "value": "39 ± 2", "unit": "µM"}, {"measurement": "Antimycobacterial activity MIC, M. kansasii", "setting": "[6]; [16]", "value": 12.5, "unit": "µg/mL"}, {"measurement": "MIC", "setting": "[6]; [16]", "value": 12.5, "unit": "µg/mL"}, {"measurement": "IC50", "setting": "[7]", "value": "51 ± 14", "unit": "µM"}]}
{"smiles": "NNC(=O)c1ccncc1", "note": "[INH, isoniazid, reference compound]", "values": [{"measurement": "IC50", "setting": "HepG2 cells [8]", "value": 79, "unit": "mM"}, {"measurement": "MIC", "setting": "[2]; [15]", "value": "0.39 to 0.78", "unit": "µg/mL"}, {"measurement": "MIC", "setting": "[3]", "value": "12.5 to 25", "unit": "µg/mL"}, {"measurement": "MIC", "setting": "M. avium CNCTC My 152/73", "value": "3.13 to 6.25", "unit": "µg/mL"}, {"measurement": "Lipophilicity logk", "setting": "[9]", "value": "−0.743"}, {"measurement": "MIC", "setting": "[6]; [16]", "value": "12.5 to 25", "unit": "µg/mL"}]}
{"smiles": "O=C(Nc1ccc(O)cc1)c1cnc(Cl)cn1", "note": "[Compound 4, 5-Chloro-N-(4-hydroxyphenyl)pyrazine-2-carboxamide]", "values": [{"measurement": "Cytotoxicity SI", "setting": "HepG2 cells [1]; [12]", "value": 5.47}, {"measurement": "MIC", "setting": "[2]; [13]", "value": 12.5, "unit": "µg/mL"}, {"measurement": "MIC", "setting": "[2]; [14]", "value": 12.5, "unit": "µM"}, {"measurement": "MIC", "setting": "[2]; [15]", "value": 3.13, "unit": "µg/mL"}, {"measurement": "MIC", "setting": "[3]", "value": "> 100", "unit": "µg/mL"}, {"measurement": "IC50", "setting": "HepG2 cells [4]", "value": 69, "unit": "µM"}, {"measurement": "MIC", "setting": "M. avium CNCTC My 152/73", "value": 50, "unit": "µg/mL"}, {"measurement": "IC50", "setting": "in vitro", "value": 68.6, "unit": "µM"}, {"measurement": "IC50", "setting": "[5]", "value": "48 ± 4", "unit": "µM"}, {"measurement": "Activity against M. kansasii (in words)", "setting": "[6]", "value": "inactive"}, {"measurement": "MIC", "setting": "[6]; [16]", "value": 100, "unit": "µg/mL"}, {"measurement": "IC50", "setting": "[7]", "value": "100 ± 39", "unit": "µM"}]}
{"smiles": "O=C(Nc1ccc(C(=O)O)c(O)c1)c1cnc(Cl)cn1", "note": "[Compound 30, 4-(5-Chloropyrazine-2-carboxamido)-2-hydroxybenzoic acid]", "values": [{"measurement": "Cytotoxicity rating in ACHN cell line (in words)", "setting": "[10]", "value": "non-toxic"}, {"measurement": "MIC", "setting": "[2]; MIC converted to molar concentrations, read-out: M. tbc H37Rv MIC", "value": 10.7, "unit": "µM"}, {"measurement": "Activity in comparison with PZA (times more active)", "setting": "[2]; MIC for M. tbc H37Rv in µM compared", "value": "5–10 times"}, {"measurement": "MIC", "setting": "[2]; [15]", "value": 3.13, "unit": "µg/mL"}, {"measurement": "MIC", "setting": "[2]; [17]", "value": 10, "unit": "µM"}, {"measurement": "MIC", "setting": "[3]", "value": "> 100", "unit": "µg/mL"}, {"measurement": "melting point", "value": "240 to 244 °C (dec.)"}, {"measurement": "Cytotoxicity rating in CHO-K1 cell line (in words)", "setting": "[11]", "value": "non-toxic"}, {"measurement": "MIC", "setting": "M. avium CNCTC My 152/73", "value": "> 100", "unit": "µg/mL"}, {"measurement": "IC50", "setting": "[5]", "value": "502 ± 122", "unit": "µM"}, {"measurement": "IC50", "setting": "[7]", "value": "371 ± 96", "unit": "µM"}]}
{"smiles": "NC(=O)c1cnc(Cl)cn1", "note": "[Compound 5-Cl-PZA, 5-chloropyrazine-2-carboxamide, reference compound]", "values": [{"measurement": "Cytotoxicity SI", "setting": "HepG2 cells [1]; human", "value": 10.0}, {"measurement": "MIC", "setting": "[2]; [15]", "value": 25, "unit": "µg/mL"}, {"measurement": "MIC", "setting": "[2]; [17]", "value": 159, "unit": "µM"}, {"measurement": "MIC", "setting": "[3]", "value": "> 100", "unit": "µg/mL"}, {"measurement": "IC50", "setting": "HepG2 cells [4]", "value": 1590, "unit": "µM"}, {"measurement": "MIC", "setting": "M. avium CNCTC My 152/73", "value": "> 100", "unit": "µg/mL"}, {"measurement": "IC50", "setting": "in vitro", "value": 1590, "unit": "µM"}, {"measurement": "IC50", "setting": "[5]", "value": "290 ± 43", "unit": "µM"}, {"measurement": "MIC", "setting": "[6]; [16]", "value": 12.5, "unit": "µg/mL"}, {"measurement": "IC50", "setting": "[7]", "value": "540 ± 120", "unit": "µM"}]}
